Assay results taken from patent US11767330B2, “Citrate salt, pharmaceutical compositions, and methods of making and using the same” (Foghorn Therapeutics Inc., priority 2021, dated 2023).
“Also recorded” adds a separate entry of the source.

Key:
BRD9 [1] = biological target: T1, BRD9 (Homo sapiens, UniProt Q9H8M2); assay: BRD9 degradation western blot in ASKA cells (Example 13); format: cell-based; set-up: degradation endogenous BRD9 protein in two synovial sarcoma cell lines; endogenous in cells; host or cells: ASKA synovial sarcoma cells; settings: for DC50: read-out: Fitted DC50
T1 sequence (Q9H8M2 1-597): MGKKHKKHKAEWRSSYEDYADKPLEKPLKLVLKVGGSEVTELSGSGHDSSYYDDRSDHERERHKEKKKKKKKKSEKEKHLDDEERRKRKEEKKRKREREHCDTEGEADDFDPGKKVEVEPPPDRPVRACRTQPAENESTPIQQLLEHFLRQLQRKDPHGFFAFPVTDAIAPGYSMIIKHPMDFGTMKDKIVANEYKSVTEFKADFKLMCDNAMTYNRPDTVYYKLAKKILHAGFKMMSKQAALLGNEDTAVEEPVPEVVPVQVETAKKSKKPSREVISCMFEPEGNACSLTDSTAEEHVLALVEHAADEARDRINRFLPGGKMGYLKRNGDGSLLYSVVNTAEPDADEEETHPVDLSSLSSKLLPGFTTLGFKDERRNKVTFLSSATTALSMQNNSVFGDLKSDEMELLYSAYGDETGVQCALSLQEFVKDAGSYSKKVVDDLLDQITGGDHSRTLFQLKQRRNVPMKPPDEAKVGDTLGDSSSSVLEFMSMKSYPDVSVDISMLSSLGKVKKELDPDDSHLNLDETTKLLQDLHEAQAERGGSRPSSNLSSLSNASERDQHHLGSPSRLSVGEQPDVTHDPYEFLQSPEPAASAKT
Description: […] Cells were then harvested, washed with cold PBS, and frozen in cell pellets at −80° C. Lysates were prepared by resuspending thawed pellets in 1×RIPA Lysis and Extraction buffer (Thermo Fisher, Cat #89900) with 1× Halt™ Protease and Phosphatase Inhibitor Cocktail, EDTA-free (Thermo Fisher, Cat #78441) and 1:1000 dilution Pierce™ Universal Nuclease for Cell Lysis 25 ku (Thermo Fisher, Cat #88700). Lysates were incubated on ice for 10 minutes and then centrifuged in 4° C. at maximum speed (15,000 rpm) for 10 minutes. Samples were then analyzed for total protein using BCA protein quantification assay and diluted to 1 μg/μL with lysis buffer and 1× NuPAGE™ LDS Sample Buffer (4×) (Thermo Fisher, Cat #NP0007) and 1×DTT from 30× stock (Cell Signaling Technologies, Cat #14265S). Samples with 20-25 ug of total protein were loaded into 4-12% Bis-Tris Mini-Gel with 1×MES Running buffer and run at 150V for 45 minutes. Gels were transferred using Trans-Blot® Turbo™ Transfer System (semi-dry) at 25V for 10 minutes (High MW setting) on nitrocellulose blots. Blots were blocked in 5% milk in TBST for 1 hour and probed with BRD9 antibody (Bethyl Labs, Cat #A303-781A, 1:750 for SYO1, and Cell Signaling Technologies, Cat #71232S for ASKA) and beta-Actin antibody (Cell Signaling Technologies, Cat #3700, 1:2,000) overnight at 4° C. The next day, blots were washed in TBST 3× and probed with 1:5,000 IRDye® 680LT Goat anti-Rabbit IgG Secondary Antibody (LiCOR, Cat #926-68021) and 1:10,000 IRDye® 800CW Goat anti-Mouse IgG Secondary Antibody (LiCOR, Cat #926-32210) in LiCOR Odyssey® Blocking Buffer (TBS) for 1 hour at room temperature. Blots were washed in TBST 3× and scanned at […] wavelength using LiCOR Odyssey® CLx Imaging System. Western blot signal was quantified using same analyses program included in the same machine. BRD9 signal was quantified by normalizing to beta-actin signal and all samples were normalized to DMSO, set as 100% signal.

BRD9 [2] = biological target: T1, BRD9; assay: Pharmacodynamic BRD9 level in SYO-1 xenograft, western blot (Example 14); format: in vivo, mice; set-up: Tumors were lysed with 1×RIPA lysis buffer; from tissue; host or cells: SYO-1 xenograft tumours in BALB/c Nude mice; settings: SYO-1 Xenograft model; for pharmacodynamic activity, BRD9 protein level by western blot: BALB/c Nude mice, single dose i.v. (Table 6)
[3] = Interconversion between Enantiomer 1 and Enantiomer 2 in cell medium (chiral LC/MS-MS); format: physicochemical; settings: 0.2 μM dosed enantiomer, cell medium 37° C.
Description: For the assessment of interconversion between Enantiomer 1 and Enantiomer 2 in cell medium, the following test was performed. […] At designated time point, aliquot (50 μL) was taken and processed by the addition of 150 μL of acetonitrile containing 0.1% formic acid and internal standard for LC/MS-MS analysis. Peak areas of both Enantiomer 1 and Enantiomer 2 were determined for each sample using a chiral specific analytical method.

BRD9 [4] = biological target: T1, BRD9; assay: BRD9 degradation western blot in SYO-1 cells (Example 13); format: cell-based; set-up: degradation endogenous BRD9 protein in two synovial sarcoma cell lines; endogenous in cells; host or cells: SYO1 (SYO-1) synovial sarcoma cells; settings: for DC50: read-out: Fitted DC50; for degradation of endogenous BRD9 protein at early time point: two synovial sarcoma cell lines (SYO-1 and ASKA)
Description: Synovial sarcoma cells were plated in 6-well plate at […] cells/well and treated with serial concentrations of BRD9 degrader (10 nM top concentration, diluted 1:3) the next day for two time points at 37° C. Cells were then harvested, washed with cold PBS, and frozen in cell pellets at −80° C. Lysates were prepared by resuspending thawed pellets in 1×RIPA Lysis and Extraction buffer (Thermo Fisher, Cat #89900) with 1× Halt™ Protease and Phosphatase Inhibitor Cocktail, EDTA-free (Thermo Fisher, Cat #78441) and 1:1000 dilution Pierce™ Universal Nuclease for Cell Lysis 25 ku (Thermo Fisher, Cat #88700). Lysates were incubated on ice for 10 minutes and then centrifuged in 4° C. at maximum speed (15,000 rpm) for 10 minutes. Samples were then analyzed for total protein using BCA protein quantification assay and diluted to 1 μg/μL with lysis buffer and 1× NuPAGE™ LDS Sample Buffer (4×) (Thermo Fisher, Cat #NP0007) and 1×DTT from 30× stock (Cell Signaling Technologies, Cat #14265S). Samples with 20-25 ug of total protein were loaded into 4-12% Bis-Tris Mini-Gel with 1×MES Running buffer and run at 150V for 45 minutes. Gels were transferred using Trans-Blot® Turbo™ Transfer System (semi-dry) at 25V for 10 minutes (High MW setting) on nitrocellulose blots. Blots were blocked in 5% milk in TBST for 1 hour and probed with BRD9 antibody (Bethyl Labs, Cat #A303-781A, 1:750 for SYO1, and Cell Signaling Technologies, Cat #71232S for ASKA) and beta-Actin antibody (Cell Signaling Technologies, Cat #3700, 1:2,000) overnight at 4° C. The next day, blots were washed in TBST 3× and probed with 1:5,000 IRDye® 680LT Goat anti-Rabbit IgG Secondary Antibody (LiCOR, Cat #926-68021) and 1:10,000 IRDye® 800CW Goat anti-Mouse IgG Secondary Antibody (LiCOR, Cat #926-32210) in LiCOR Odyssey® Blocking Buffer (TBS) for 1 hour at room temperature. Blots were washed in TBST 3× and scanned at […] wavelength using LiCOR Odyssey® CLx Imaging System. Western blot signal was quantified using same analyses program included in the same machine. BRD9 signal was quantified by normalizing to beta-actin signal and all samples were normalized to DMSO, set as 100% signal.

[5] = system: non-synovial control cancer cell lines (RD, HCT116, and Calu6); assay: Growth of non-synovial control cancer cell lines, crystal violet day 14 (Example 3); format: cell-based; settings: daily treatment
Description: (§1) Procedure: Cells were seeded into 6-well or 12-well plates and were treated daily with a BRD9 degrader (Compound 1), a bromo-domain BRD9 binder (Compound 2), E3 ligase binder (lenalidomide), DMSO, or staurosporin (positive control for cell killing), at indicated concentrations. The number of cells was optimized for each cell line. Growth media was refreshed every 5 days. By day 14, medium was removed, cells were washed with PBS, and stained using 500 μL of 0.005% (w/v) crystal violet solution in 25% (v/v) methanol for at least 1 hour at room temperature. Subsequently plates were scanned on an Odyssey CLx Imaging system.

[6] = system: non-synovial control cancer cell lines (293T, A549, G401); assay: Growth of non-synovial control cancer cell lines (Example 2); format: cell-based
Description: (§2) Cells were treated with DMSO or the BRD9 degrader, Compound 1, at indicated concentrations, and proliferation was monitored from day 7 to day 14 by measuring confluency overtime using an IncuCyte live cell analysis system (FIG. 4). Growth medium and compounds were refreshed every 3-4 days.
(§3) Cells were seeded into 12-well plates and treated with DMSO, 1 μM BRD9 inhibitor, Compound 2 (also known as BI-7273, see Martin et al, J Med Chem. 59(10):4462-4475 (2016); see structure of compound 2 below), or 1 μM BRD9 degrader, Compound 1.
(§4) The number of cells was optimized for each cell line. Growth medium and compounds were refreshed every 3-5 days. SYO1, Yamato, A549, 293T and HS-SY-II cells were fixed and stained at day 11. ASKA cells were fixed and stained at day 23. Staining was done by incubation with crystal violet solution (0.5 g Crystal Violet, 27 ml 37% Formaldehyde, 100 mL 10×PBS, 10 mL Methanol, 863 dH20 to 1 L) for 30 min followed by 3× washes with water and drying the plates for at least 24 h at room temperature. Subsequently plates were scanned on an Odyssey CLx Imaging system (FIG. 5).
(§5) Cells were seeded into 96-well ultra-low cluster plate (Costar, #7007) in 200 μL complete media and treated at day 2 with DMSO, Staurosporin, or BRD9 degrader, Compound 1, at indicated doses (FIG. 2C). Media and compounds were changed every 5 d and cell colonies were imaged at day 14.

[7] = system: synovial sarcoma cell lines (SYO1, HS-SY-II, and ASKA); assay: Growth of synovial sarcoma cell lines, crystal violet day 14 (Example 3); format: cell-based; settings: daily treatment
Description: as §1

[8] = system: synovial sarcoma cell lines (SYO1, Yamato, HS-SY-II, and ASKA); assay: Growth of synovial sarcoma cell lines, IncuCyte confluency / crystal violet / colony imaging (Example 2); format: cell-based; settings: FIGS. 4, 5, 6
Description: as §2, §3, §4, §5

SMILES | DC50 (BRD9 [1]; 0.5 h) [nM] | BRD9 degradation activity (BRD9 [1]; 30 minutes, up to 10 μM) | DC50 (BRD9 [1]; 2 h) [nM] | pharmacodynamic activity, BRD9 protein level by western blot (BRD9 [2]) | % Enantiomer 2 ([3]; 2 h) [%] | % Enantiomer 2 ([3]; 6 h) [%] | DC50 (BRD9 [4]; SYO-1, 1 h) [nM] | DC50 (BRD9 [4]; SYO-1, 6 h) [nM] | degradation of endogenous BRD9 protein at early time point (BRD9 [4]) | difference in DC50 between Enantiomer 1 and Enantiomer 2 (BRD9 [1]; 2 h) | duration of BRD9 degradation after a single dose (BRD9 [2]; single dose i.v.) | % Enantiomer 2 ([3]; 0 h) [%] | % Enantiomer 2 ([3]; 0.5 h) [%] | difference in DC50 between Enantiomer 1 and Enantiomer 2 (BRD9 [4]; SYO1, 6 h) | BRD9 degradation compared to racemic compound D1 (BRD9 [4]; SYO-1, 1 or 6 hours (FIGS. 16 and 17)) | active enantiomer in degrading BRD9 in cells (BRD9 [4]; overall conclusion of Example 13) | growth of non-synovial control cancer cell lines [5] | growth of non-synovial control cancer cell lines [6] | growth of synovial sarcoma cell lines [7] | growth of synovial sarcoma cell lines [8]
COc1cc(-c2cn(C)c(=O)c3cnc(N4CCC4)cc23)cc(OC)c1CN1CCC(CN2CCC3(CC2)CN(c2ccc4c(c2)C(=O)N([C@H]2CCC(=O)NC2=O)C4)C3)CC1 (single isomer, unassigned; enantiomer 1) [Enantiomer 1] | > 10 | no discernable activity | 0.38 | inactive and did not degrade BRD9 protein | 12 | 30 | 2.8 | 0.066 | largely inactive or with much reduced degradation potency | – | – | – | – | – | – | – | – | – | – | –
COc1cc(-c2cn(C)c(=O)c3cnc(N4CCC4)cc23)cc(OC)c1CN1CCC(CN2CCC3(CC2)CN(c2ccc4c(c2)C(=O)N([C@@H]2CCC(=O)NC2=O)C4)C3)CC1 (single isomer, unassigned; enantiomer 2) [Enantiomer 2] | 0.34 | – | 0.012 | significant activity; also recorded: equipotent to racemic compound D1 | 82 | 63 | 0.092 | 0.023 | much more potent | about 32 fold | degraded BRD9 up to 72 hours after a single dose | 99 | 95 | ca. 3 fold | slightly better than its racemic parent compound D1 in degrading BRD9 but overall comparable | active enantiomer | – | – | – | –
COc1cc(-c2cn(C)c(=O)c3cnccc23)cc(OC)c1CN(C)C [Compound 2] | – | – | – | – | – | – | – | – | – | – | – | – | – | – | – | – | did not result in inhibition of the growth | does not result in inhibition of the growth | inhibition of the growth of the cells | inhibition of the growth of the cells
